Patent US20240225981A1, “Synthesized Molecule of Solketal Esters from Palm Kit Oil and Glycerin for Cosmetic and Agricultural Formulations” (BRASIL BIO FUELS S.A, priority 2023, published 2024)
Entries after “also recorded” stand apart in the source; their conditions may differ.

Legend:
[1] = test system: eye; test: Eye irritation tests (OECD and GHS); format: in vivo; conditions: OECD and GHS standards
Description: In eye irritation tests, the product was classified as non-irritating according to OECD and GHS standards.

[2] = test system: skin; test: Skin irritation tests (OECD and GHS); format: in vivo; conditions: OECD and GHS standards; non-irritating in 2 tests, one test mild
Description: Two new batches of cocoyl glyceryl solketal were sent to confirm dermal irritation tests.

Cocoyl glyceryl solketal
Eye irritation classification [1]: non-irritating | Skin irritation classification [2]: non-irritating; also recorded: mild dermal irritation
